target: DGKα (Homo sapiens (Human), UniProt P23743); experiment: Human DGKα kinase activity inhibition assay (ADP-Glo); format: biochemical; settings: recombinant full-length human DGKα, 55 μM ATP, 7 μM 1,2-dioleoyl-sn-glycerol, read-out: IC50 values of examples in in vitro human DGKa kinase activity inhibition assays
In short: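 Recombinant full-length human DGKα (C-terminal FLAG, from insect cells) phosphorylated 1,2-dioleoyl-sn-glycerol presented in octyl-glucopyranoside micelles. ADP formed was quantified by ADP-Glo luminescence. Compounds were added from 100-fold DMSO stocks.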

Chain of DGKα (P23743 other isoform, or with tags, fused parts or gaps): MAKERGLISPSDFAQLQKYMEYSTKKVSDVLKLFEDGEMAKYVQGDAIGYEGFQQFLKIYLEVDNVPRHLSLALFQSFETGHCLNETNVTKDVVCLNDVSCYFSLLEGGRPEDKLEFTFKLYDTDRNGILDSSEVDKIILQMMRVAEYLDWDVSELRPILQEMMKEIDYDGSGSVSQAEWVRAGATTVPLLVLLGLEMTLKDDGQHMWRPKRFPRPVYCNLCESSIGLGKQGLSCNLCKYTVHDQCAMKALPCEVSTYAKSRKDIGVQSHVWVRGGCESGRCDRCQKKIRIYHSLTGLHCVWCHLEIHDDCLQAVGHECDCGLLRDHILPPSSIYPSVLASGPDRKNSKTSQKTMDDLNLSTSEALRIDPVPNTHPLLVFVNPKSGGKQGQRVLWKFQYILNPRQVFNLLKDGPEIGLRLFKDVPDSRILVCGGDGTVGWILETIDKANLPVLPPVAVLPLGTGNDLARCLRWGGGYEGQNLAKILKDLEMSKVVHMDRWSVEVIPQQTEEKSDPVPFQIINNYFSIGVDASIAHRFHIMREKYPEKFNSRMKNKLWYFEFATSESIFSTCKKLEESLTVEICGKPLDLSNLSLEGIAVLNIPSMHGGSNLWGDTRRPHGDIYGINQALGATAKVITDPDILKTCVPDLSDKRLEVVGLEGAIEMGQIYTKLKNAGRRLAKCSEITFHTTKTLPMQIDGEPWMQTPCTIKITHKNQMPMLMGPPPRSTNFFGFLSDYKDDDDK

SMILES	IC50
Cc1ccc2oc(C3(C)CCN(c4c(C#N)c(=O)n(C)c5c(C6CC6)cccc45)CC3)nc2c1 [Example 272, 8-cyclopropyl-1-methyl-4-[4-methyl-4-(5-methyl-1,3-benzoxazol-2-yl)piperidin-1-yl]-2-oxo-1,2-dihydroquinoline-3-carbonitrile]	113 nM
CCCOc1cccc2c(N3CCC(C)(c4nc5cc(C)ccc5o4)CC3)c(C#N)c(=O)n(C)c12 [Example 273, 1-methyl-4-[4-methyl-4-(5-methyl-1,3-benzoxazol-2-yl)piperidin-1-yl]-2-oxo-8-propoxy-1,2-dihydroquinoline-3-carbonitrile]	119 nM
Cc1ccc2oc(C3(C)CCN(c4c(C#N)c(=O)n(C)c5ccc(OC6CC6)cc45)CC3)nc2c1 [Example 274, 6-(cyclopropyloxy)-1-methyl-4-[4-methyl-4-(5-methyl-1,3-benzoxazol-2-yl)piperidin-1-yl]-2-oxo-1,2-dihydroquinoline-3-carbonitrile]	152 nM
Cn1c(=O)c(C#N)c(N2CCC(c3nc4ccccc4o3)CC2)c2ccc(C#N)cc21 [Example 275, 4-[4-(1,3-benzoxazol-2-yl)piperidin-1-yl]-1-methyl-2-oxo-1,2-dihydroquinoline-3,7-dicarbonitrile]	172 nM
Cn1c(=O)c(C#N)c(N2CCC(c3nc4ccccc4s3)CC2)c2cc(C3CC3)ccc21 [Example 276, 4-[4-(1,3-benzothiazol-2-yl)piperidin-1-yl]-6-cyclopropyl-1-methyl-2-oxo-1,2-dihydroquinoline-3-carbonitrile]	216 nM
Cc1ccc2oc(C3(C)CCN(c4c(C#N)c(=O)n(C)c5ccc(N6C[C@H](O)CC6=O)cc45)CC3)nc2c1 [Example 277, 6-[(4R)-4-hydroxy-2-oxopyrrolidin-1-yl]-1-methyl-4-[4-methyl-4-(5-methyl-1,3-benzoxazol-2-yl)piperidin-1-yl]-2-oxo-1,2-dihydroquinoline-3-carbonitrile]	243 nM
Cc1ccc2oc(C3(C)CCN(c4c(C#N)c(=O)n(C)c5ccc(OC6CCC6)cc45)CC3)nc2c1 [Example 278, 6-(cyclobutyloxy)-1-methyl-4-[4-methyl-4-(5-methyl-1,3-benzoxazol-2-yl)piperidin-1-yl]-2-oxo-1,2-dihydroquinoline-3-carbonitrile]	480 nM
CCCOc1ccc2c(c1)c(N1CCC(C)(c3nc4cc(C)ccc4o3)CC1)c(C#N)c(=O)n2C [Example 279, 1-methyl-4-[4-methyl-4-(5-methyl-1,3-benzoxazol-2-yl)piperidin-1-yl]-2-oxo-6-propoxy-1,2-dihydroquinoline-3-carbonitrile]	1280 nM
Cc1ccc2oc(C3(C)CCN(c4c(C(N)=O)c(=O)n(C)c5ccc(N6C[C@H](O)CC6=O)cc45)CC3)nc2c1 [Example 280, 6-[(4R)-4-hydroxy-2-oxopyrrolidin-1-yl]-1-methyl-4-[4-methyl-4-(5-methyl-1,3-benzoxazol-2-yl)piperidin-1-yl]-2-oxo-1,2-dihydroquinoline-3-carboxamide]	4740 nM
Cc1ccc2oc(C3CCN(c4c(C#N)c(=O)n(C)c5cc(Br)ccc45)CC3)nc2c1 [Example 281, 7-bromo-1-methyl-4-[4-(5-methyl-1,3-benzoxazol-2-yl)piperidin-1-yl]-2-oxo-1,2-dihydroquinoline-3-carbonitrile]	8.9 nM
Cc1ccc2oc(C3CCN(c4c(C#N)c(=O)n(C)c5cc(P(C)(C)=O)ccc45)CC3)nc2c1 [Example 282, 7-(dimethylphosphoryl)-1-methyl-4-[4-(5-methyl-1,3-benzoxazol-2-yl)piperidin-1-yl]-2-oxo-1,2-dihydroquinoline-3-carbonitrile]	872 nM
COCCc1ccc2oc(C3CCN(c4c(C#N)c(=O)n(C)c5ccccc45)CC3)nc2c1 [Example 283, 4-{4-[5-(2-methoxyethyl)-1,3-benzoxazol-2-yl]piperidin-1-yl}-1-methyl-2-oxo-1,2-dihydroquinoline-3-carbonitrile]	6.8 nM
